The values that follow come from BindingDB's records for patent US20250313563 (The Broad Institute, 2025).

For assay [1], the target named is Glycogen synthase kinase-3 alpha (Homo sapiens, UniProt P49840). As to the kind of experiment: TR-FRET Assay. The method, then: (§1) The assay was performed in a white, 384 well, low volume, flat bottom plate (Grenier). […] The kinase activity was quenched with 2 μL of 250 mM EDTA. A 10 μL volume of 40 nM Strepavidin-d2, 2 nM Tb2+-pSer641 antibody in TR-FRET Detection Buffer (Invitrogen) was then added.
(In general: TR-FRET usually uses a lanthanide donor and a delayed reading to cut background.)

Assay [2] concerns the target Glycogen synthase kinase-3 beta (Homo sapiens, UniProt P49841). As to the kind of experiment: TR-FRET Assay. As to the method: as §1

Several values for one entry are separate records, joined by “and”; a condition that tells them apart may be missing. Equal entries are not always repeated.

Glycogen synthase kinase-3 beta, sequence (P49841 whole entry): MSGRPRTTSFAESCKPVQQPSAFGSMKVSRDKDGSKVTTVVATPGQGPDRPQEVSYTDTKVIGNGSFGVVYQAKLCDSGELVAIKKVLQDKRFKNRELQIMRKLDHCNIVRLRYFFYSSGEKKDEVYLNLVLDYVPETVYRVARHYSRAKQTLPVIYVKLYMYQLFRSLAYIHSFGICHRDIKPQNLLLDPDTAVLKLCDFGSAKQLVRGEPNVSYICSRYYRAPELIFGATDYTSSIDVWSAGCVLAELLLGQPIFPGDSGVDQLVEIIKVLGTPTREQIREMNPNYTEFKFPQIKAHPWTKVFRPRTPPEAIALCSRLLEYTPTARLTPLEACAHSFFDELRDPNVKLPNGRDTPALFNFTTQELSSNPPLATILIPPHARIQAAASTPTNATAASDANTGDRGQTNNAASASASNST
Glycogen synthase kinase-3 alpha, sequence (P49840 whole entry): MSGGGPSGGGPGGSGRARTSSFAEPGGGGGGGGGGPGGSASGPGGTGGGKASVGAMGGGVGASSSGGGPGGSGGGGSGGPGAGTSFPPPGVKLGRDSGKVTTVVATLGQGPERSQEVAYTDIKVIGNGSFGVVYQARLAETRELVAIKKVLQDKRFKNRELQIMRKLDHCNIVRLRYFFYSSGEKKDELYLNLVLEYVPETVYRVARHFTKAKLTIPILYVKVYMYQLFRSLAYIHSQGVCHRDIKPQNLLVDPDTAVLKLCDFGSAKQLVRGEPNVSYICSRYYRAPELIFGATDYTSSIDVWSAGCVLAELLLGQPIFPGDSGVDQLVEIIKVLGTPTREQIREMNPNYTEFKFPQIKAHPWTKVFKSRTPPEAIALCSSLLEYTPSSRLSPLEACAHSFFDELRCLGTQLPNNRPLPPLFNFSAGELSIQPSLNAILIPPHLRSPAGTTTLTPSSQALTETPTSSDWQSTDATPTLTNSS

One may read the IC50 as the midpoint of a concentration-inhibition curve. A high value points to a need for much substance. With `CC[C@]1(c2cccc(-c3ccnc(C)c3C)c2)C2=C(CC(C)(C)NC2=O)NC2N=NC(C)=C21` (some centres not stated) [US20250313563, Compound 948183], the 50% inhibitory concentration (IC50) in assay [1] is 1000 to 5000 nM; in assay [2] it was greater than 5000 nM.

As to `CC[C@@]1(c2cccc(-c3ccnc(C)c3)c2)C2=C(CC(C)(C)NC2=O)NC2N=NC(Cl)=C21` (some centres not stated) [US20250313563, Compound 949422], the IC50 in assay [1] is < 100 nM and 100 to 1000 nM; in assay [2], < 100 nM and 1000 to 5000 nM.

As to `CC1(C)CC(=O)C2=C(C1)NC1=C(CN=N1)[C@@]21CCN(S(C)(=O)=O)C1` [US20250313563, Compound 942462], the IC50 in assay [1] and in assay [2] was less than 100 nM throughout.

For the compound `CC[C@@]1(c2cccc(-c3c(F)cncc3F)c2)C2=CN=NC2NC2=C1C(=O)NC(C)(C)C2` (some centres not stated) [US20250313563, Compound 948525], the IC50 in assay [1] is < 100 nM and 100 to 1000 nM; in assay [2], < 100 nM and 1000 to 5000 nM.

Regarding `CC1(C)CC(=O)C2=C(C1)NC1=C(CN=N1)C21COC2(CN(C(=O)C3CC3(F)F)C2)C1` (configuration not stated) [US20250313563, Compound 947272], the 50% inhibitory concentration (IC50) in assay [1] and in assay [2] was less than 100 nM in each case.

Turning to `CC1(C)CC(=O)C2=C(C1)NC1=C(CN=N1)C21CCCc2ccccc21` (configuration not stated) [US20250313563, Compound 913219], the figures for the IC50 in assay [1] and in assay [2] were less than 100 nM and 100 to 1000 nM, respectively.

In the case of `CC[C@]1(c2ccccc2)C2=CN=NC2NC2=C1C(=O)[C@H](C)C[C@@H]2C` (some centres not stated) [US20250313563, Compound 909216], the IC50 in assay [1] and in assay [2] was 100 to 1000 nM in each case.

On to `CC[C@]1(c2cccc(-c3ccncc3F)c2)C2=C(CC(C)(C)NC2=O)NC2N=NC(C)=C21` (some centres not stated) [US20250313563, Compound 947805], for which the IC50 in assay [1] lay in the range of 100 to 1000 nM; in assay [2] it was 1000 to 5000 nM.

With `CC[C@@]1(c2cccc(C3CN(C(C)=O)C3)c2)C2=CN=NC2NC2=C1C(=O)CC(C)(C)C2` (some centres not stated) [US20250313563, Compound 949132], the IC50 in assay [1] and in assay [2] was greater than 5000 nM each time.

In the case of `CC[C@@]1(c2cccc(-c3cnn(C4CC4)c3)c2)C2=CN=NC2NC2=C1C(=O)CC(C)(C)C2` (some centres not stated) [US20250313563, Compound 913041], the IC50 in assay [1] was 1000 to 5000 nM; in assay [2] it was greater than 5000 nM.

Turning to `CCC1(c2cccc(N(C(C)=O)C3CCCC3)c2)C2=CN=NC2NC2=C1C(=O)CC(C)(C)C2` (configuration not stated) [US20250313563, Compound 912069], the IC50 in assay [1] and in assay [2] was less than 100 nM each time.

For the compound `CCC1(c2cccc(-c3cnn(C)c3)c2)C2=C(CC(C)(C)NC2=O)NC2N=NC(F)=C21` (configuration not stated) [US20250313563, Compound 948300], the figures for the IC50 in assay [1] and in assay [2] were less than 100 nM and 100 to 1000 nM, respectively.

Take `CC1(C)CC(=O)C2=C(C1)NC1=C(CN=N1)C21CCN(S(=O)(=O)c2cccc3ncccc23)CC1` [US20250313563, Compound 947469]: the IC50 in assay [1] and in assay [2] was less than 100 nM in each case.

Take `CCC1(c2cccc(-c3cncn3C)c2)C2=C(CC(C)(C)NC2=O)NC2N=NC(C(F)(F)F)=C21` (configuration not stated) [US20250313563, Compound 948180]: the IC50 in assay [1] and in assay [2] was less than 100 nM in each case.

As to `CC1(C)CC(=O)C2=C(C1)NC1=C(CN=N1)C21CCCSCC1` (configuration not stated) [US20250313563, Compound 913126], the figures for the IC50 in assay [1] and in assay [2] were less than 100 nM and 100 to 1000 nM, respectively.

Consider `CC[C@]1(c2cccc(-c3ccnn3C)c2)C2=CN=NC2NC2=C1C(=O)NC1(CCCC1)C2` (some centres not stated) [US20250313563, Compound 948019], for which the results for the concentration for half-maximal inhibition (IC50) in assay [1] and in assay [2] were 1000 to 5000 nM and greater than 5000 nM, respectively.

For the compound `CCC1(c2cccc(-c3ccnn3C(C)C)c2)C2=CN=NC2NC2=C1C(=O)CC(C)(C)C2` (configuration not stated) [US20250313563, Compound 929399], the IC50 in assay [1] and in assay [2] was less than 100 nM throughout.

For the compound `CC[C@]1(c2cccc(-c3ccnc(C)c3C)c2)C2=C(CC(C)(C)NC2=O)NC2N=NC(C(F)(F)F)=C21` (some centres not stated) [US20250313563, Compound 948181], the IC50 in assay [1] and in assay [2] was 100 to 1000 nM in each case.

With `CC(C)(C)CC1N=NC2=C1[C@](C)(c1ccccc1)C1=C(CC(C)(C)NC1=O)N2` (some centres not stated) [US20250313563, Compound 114531], the IC50 in assay [1] is greater than 5000 nM; in assay [2] it was 1000 to 5000 nM.

`CC[C@]1(c2cccc(-c3ccncn3)c2)C2=CN=NC2NC2=C1C(=O)CC(C)(C)C2` (some centres not stated) [US20250313563, Compound 810488]: the figures for the IC50 in assay [1] and in assay [2] were less than 100 nM and 100 to 1000 nM, respectively.

On to `CC[C@@]1(c2cccc(Br)c2)C2=CN=NC2NC2=C1C(=O)C[C@H](C(F)(F)F)C2` (some centres not stated) [US20250313563, Compound 826654], for which the IC50 in assay [1] and in assay [2] was greater than 5000 nM each time.

As for `CC[C@]1(c2cccc(-c3cn(C)nc3C(C)C)c2)C2=CN=NC2NC2=C1C(=O)NC(C)(C)C2` (some centres not stated) [US20250313563, Compound 949106], the IC50 in assay [1] is 1000 to 5000 nM; in assay [2] it was greater than 5000 nM.

For `CC(C)Oc1ccc(S(=O)(=O)N2CCC3(CC2)C2=C(N=NC2)NC2=C3C(=O)CC(C)(C)C2)cc1` [US20250313563, Compound 945673], the IC50 in assay [1] and in assay [2] was less than 100 nM in each case.

For `COc1ccccc1S(=O)(=O)N1CC2(C1)C1=C(N=NC1)NC1=C2C(=O)CC(C)(C)C1` [US20250313563, Compound 913261], the IC50 in assay [1] and in assay [2] was less than 100 nM throughout.

Turning to `C[C@@]1(c2ccccc2)C2=C(N=NC2)NC2=C1C(=O)CC1(CCCC1)C2` [US20250313563, Compound 792339], the IC50 in assay [1] is greater than 1700 nM; in assay [2], greater than 5000 nM.

For the compound `CC1(C)CC(=O)C2=C(C1)NC1=C(CN=N1)C21CN(c2ccncn2)C1` [US20250313563, Compound 909209], the IC50 in assay [1] and in assay [2] was 1000 to 5000 nM each time.

Take `CC[C@@]1(c2cccc(Br)c2)C2=CN=NC2NC2=C1C(=O)[C@H](F)C(C)(C)C2` (some centres not stated) [US20250313563, Compound 835313]: the IC50 in assay [1] and in assay [2] was greater than 5000 nM in each case.

For the compound `CC[C@@]1(c2cccc(Br)c2)C2=C(C[C@@H](C)CC2=O)NC2N=NC(C(F)(F)F)=C21` (some centres not stated) [US20250313563, Compound 828849], the IC50 in assay [1] and in assay [2] was 100 to 1000 nM each time.

As for `CCC1(c2ccn(C)n2)C2=C(N=NC2)NC2=C1C(=O)CC(C)(C)C2` (configuration not stated) [US20250313563, Compound 790619], the IC50 in assay [1] is 1000 to 5000 nM; in assay [2] it was greater than 5000 nM.

In the case of `CC1(C)CC(=O)C2=C(C1)NC1=C(CN=N1)C21CCC2(CC1)COC2` [US20250313563, Compound 883977], the IC50 in assay [1] was less than 100 nM; in assay [2], 100 to 1000 nM.

For `CC[C@]1(c2cccc(NS(C)(=O)=O)c2)C2=CN=NC2NC2=C1C(=O)CC(C)(C)C2` (some centres not stated) [US20250313563, Compound 927341], the IC50 in assay [1] and in assay [2] was 1000 to 5000 nM each time.

With `CC[C@]1(c2cccc(-c3c(F)cncc3Cl)c2)C2=CN=NC2NC2=C1C(=O)NC(C)(C)C2` (some centres not stated) [US20250313563, Compound 948363], the IC50 in assay [1] was 1000 to 5000 nM; in assay [2] it was greater than 5000 nM.

As for `CC1(C)CC(=O)C2=C(C1)NC1=C(CN=N1)C21CCN(c2ccncc2)CC1` [US20250313563, Compound 880765], the IC50 in assay [1] and in assay [2] was greater than 5000 nM each time.

As to `CC[C@]1(c2cccc([C@@H]3CCOC(C)(C)C3)c2)C2=CN=NC2NC2=C1C(=O)CC(C)(C)C2` (some centres not stated) [US20250313563, Compound 912089], the IC50 in assay [1] and in assay [2] was 100 to 1000 nM each time.

In the case of `CC[C@]1(c2cccc(-c3ccncc3Cl)c2)C2=CN=NC2NC2=C1C(=O)NC(C)(C)C2` (some centres not stated) [US20250313563, Compound 948020], the IC50 in assay [1] and in assay [2] was 100 to 1000 nM throughout.

On to `CCC1(c2cccc(N(C)c3ccc(OC)nc3)c2)C2=CN=NC2NC2=C1C(=O)CC(C)(C)C2` (configuration not stated) [US20250313563, Compound 913252], for which the IC50 in assay [1] and in assay [2] was 100 to 1000 nM each time.

In the case of `CC[C@]1(c2cccc(-c3ccncc3C)c2)C2=CN=NC2NC2=C1C(=O)N[C@@]1(CCCOC1)C2` (some centres not stated) [US20250313563, Compound 947912], the half-maximal inhibitory concentration (IC50) in assay [1] was 100 to 1000 nM; in assay [2], 1000 to 5000 nM.

For `Cc1ccc(C)c(S(=O)(=O)N2CCC3(CC2)C2=C(N=NC2)NC2=C3C(=O)CC(C)(C)C2)c1` [US20250313563, Compound 947471], the results for the IC50 in assay [1] and in assay [2] were less than 100 nM and 100 to 1000 nM, respectively.

Take `CCC1(c2cccc(-c3cccnc3)c2)C2=CN=NC2NC2=C1C(=O)CC(C)(C)C2` (configuration not stated) [US20250313563, Compound 791272]: the values for the IC50 in assay [1] and in assay [2] were less than 100 nM and 100 to 1000 nM, respectively.

Consider `CC[C@]1(c2cccc(N(C)C(C)=O)c2)C2=CN=NC2NC2=C1C(=O)CC(C)(C)C2` (some centres not stated) [US20250313563, Compound 810358], for which the IC50 in assay [1] and in assay [2] was less than 100 nM in each case.

On to `CC1(C)CC(=O)C2=C(C1)NC1=C(CN=N1)C21CCN(S(=O)(=O)c2ccc(F)c(Cl)c2)CC1` [US20250313563, Compound 948117], for which the IC50 in assay [1] and in assay [2] was less than 100 nM in each case.

For `Cn1ccc(S(=O)(=O)N2CC[C@]3(C2)C2=C(N=NC2)NC2=C3C(=O)CC(C)(C)C2)n1` [US20250313563, Compound 945714], the IC50 in assay [1] and in assay [2] was less than 100 nM throughout.

In the case of `CC[C@]1(c2cccc(C3CCOCC3)c2)C2=CN=NC2NC2=C1C(=O)CC(C)(C)C2` (some centres not stated) [US20250313563, Compound 819638], the IC50 in assay [1] and in assay [2] was 100 to 1000 nM throughout.

As for `CC[C@]1(c2cccc(-c3ccnc4c3cnn4C)c2)C2=CN=NC2NC2=C1C(=O)NC(C)(C)C2` (some centres not stated) [US20250313563, Compound 948817], the IC50 in assay [1] and in assay [2] was greater than 5000 nM each time.

For `CCC1(c2cccc(C(F)(F)F)c2)C2=CN=NC2NC2=C1C(=O)N(c1cncnc1)CC2` (configuration not stated) [US20250313563, Compound 948238], the IC50 in assay [1] was less than 100 nM; in assay [2], 100 to 1000 nM.

In the case of `CCC1(c2cccc(C(F)(F)F)c2)C2=CN=NC2NC2=C1C(=O)N(c1ccc(F)cc1)CC2` (configuration not stated) [US20250313563, Compound 947748], the IC50 in assay [1] is less than 100 nM; in assay [2], 100 to 1000 nM.
